ChEMBL document CHEMBL5528050, “Discovery of a Novel Series of Homo sapiens Caseinolytic Protease P Agonists for Colorectal Adenocarcinoma Treatment via ATF3-Dependent Integrated Stress Response” (J Med Chem, 2024)
Activity calls are given as the source filed them. The rule behind the calls is not given here.

Columns and labels:
HCT-116 [1] = experiment: Upregulation of GCLC expression in human HCT-116 cells measured after 48 hrs by Western blot analysis; type: functional, cell-based
[2] = Acute toxicity in BALB/c mouse assessed as effect on kidney at 50 mg/kg, iv administered as single dose measured upto 14 days by H and E staining based analysis; type: organism-based; conditions: in vivo, 336 h, time < 14 day
[3] = MRT (0 to 24 hrs) in Sprague-Dawley rat at 10 mg/kg, iv by LC-MS/MS analysis; type: ADME, organism-based; conditions: in vivo
HCT-116 [4] = experiment: Effect on JUN expression in ClpP knockdown human HCT-116 cells at 2 uM measured after 48 hrs by Western blot analysis; type: functional, cell-based
HCT-116 [5] = experiment: Antitumor activity against human HCT-116 cells xenografted in BALB/c nude mouse model assessed as reduction in tumor weight at middle dose administered as iv twice weekly and measured upto 21 days; type: functional; conditions: time <= 21 day
[6] = Half life in Sprague-Dawley rat at 10 mg/kg, iv by LC-MS/MS analysis; type: ADME, organism-based; conditions: in vivo
[7] = Half life in Sprague-Dawley rat at 10 mg/kg, po by LC-MS/MS analysis; type: ADME, organism-based; conditions: in vivo
HCT-116 [8] = experiment: Upregulation of ID1 expression in human HCT-116 cells measured after 48 hrs by Western blot analysis; type: functional, cell-based
HCT-116 [9] = experiment: Induction of apoptosis in human HCT-116 cells measured after 48 hrs by annexin V-FITC/7-AAD based flow cytometry analysis; type: functional, cell-based
HCT-116 [10] = experiment: Effect on DDIT3 expression in ClpP knockdown human HCT-116 cells at 2 uM measured after 48 hrs by Western blot analysis; type: functional, cell-based
HCT-116 [11] = experiment: Induction of apoptosis in human HCT-116 cells assessed as upregulation of bax expression at 0.5 to 2 uM measured after 48 hrs by Western blot analysis; type: functional, cell-based; conditions: dose 0.5-2 µM
HCT-116 [12] = experiment: Upregulation of CHAC1 expression in human HCT-116 cells measured after 48 hrs by Western blot analysis; type: functional, cell-based
[13] = AUC (0 to 12hrs) in Sprague-Dawley rat at 10 mg/kg, po by LC-MS/MS analysis; type: ADME, organism-based; conditions: in vivo
[14] = Metabolic stability in rat liver microsomes assessed as intrinsic clearance at 1 uM measured upto 60 mins in presence of NADPH regenerating system by LC-MS/MS analysis; type: ADME, Microsome; conditions: read-out: CLH
[15] = Metabolic stability in human liver microsomes assessed as intrinsic clearance at 1 uM measured upto 60 mins in presence of NADPH regenerating system by LC-MS/MS analysis; type: ADME, Microsome; conditions: read-out: CLH
HCT-116 [16] = experiment: Antitumor activity against human HCT-116 cells xenografted in BALB/c nude mouse model assessed as reduction in tumor volume at 2.5 mg/kg,iv administered twice weekly and measured upto 21 days relative to control; type: functional; parameters: scale not given: the % may be the effect or the level left; conditions: time <= 21 day
HCT-116 [17] = experiment: Effect on […] expression in ClpP knockdown human HCT-116 cells at 2 uM measured after 48 hrs by Western blot analysis; type: functional, cell-based
Staphylococcus aureus [18] = experiment: Antibacterial activity against Staphylococcus aureus ATCC29213 assessed as reduction in bacterial growth; type: functional
[19] = Tmax in Sprague-Dawley rat at 10 mg/kg, po by LC-MS/MS analysis; type: ADME, organism-based; conditions: in vivo
[20] = Acute toxicity in BALB/c mouse assessed as effect on body weight at middle to high dose iv measured upto 21 days relative to control; type: organism-based; conditions: in vivo, 504 h, time < 21 day
Staphylococcus aureus [21] = experiment: Antibacterial activity against Staphylococcus aureus ATCC25923 assessed as reduction in bacterial growth; type: functional
HCT-116 [22] = experiment: Induction of apoptosis in human HCT-116 cells assessed as reduction in SDHB expression measured after 48 hrs by Western blot analysis; type: functional, cell-based; conditions: dose 0.5-2 µM
HCT-116 [23] = experiment: Upregulation of JUN expression in human HCT-116 cells measured after 48 hrs by Western blot analysis; type: functional, cell-based
[24] = Antiproliferative activity against human L02 cells assessed as inhibition of cell growth measured after 72 hrs by CCK-8 method; type: toxicity, cell-based
HCT-116 [25] = experiment: Induction of apoptosis in human HCT-116 cells assessed as apoptotic rate at low dose measured after 48 hrs by annexin V-FITC/7-AAD based flow cytometry analysis relative to control; type: functional
[26] = AUC (0 to 12hrs) in Sprague-Dawley rat at 10 mg/kg, iv by LC-MS/MS analysis; type: ADME, organism-based; conditions: in vivo
[27] = Toxicity in BALB/c nude mouse assessed as effect on lung at 1.25 to 5 mg/kg, iv administered twice weekly and measured after 21 days by H and E staining based analysis; type: organism-based; conditions: in vivo, 504 h, dose 1.25-5 mg/kg, time 21 day
[28] = Cmax in Sprague-Dawley rat at 10 mg/kg, iv by LC-MS/MS analysis; type: ADME, organism-based; conditions: in vivo
Staphylococcus aureus [29] = experiment: Antibacterial activity against Staphylococcus aureus ATCC43300 assessed as reduction in bacterial growth; type: functional
HCT-116 [30] = experiment: Induction of apoptosis in human HCT-116 cells assessed as cell death at 2 uM measured after 48 hrs by annexin V-FITC/7-AAD based flow cytometry analysis relative to control; type: functional
HCT-116 [31] = experiment: Upregulation of DDIT4 expression in human HCT-116 cells measured after 48 hrs by Western blot analysis; type: functional, cell-based
HCT-116 [32] = experiment: Upregulation of ASNS expression in human HCT-116 cells measured after 48 hrs by Western blot analysis; type: functional, cell-based
[33] = Acute toxicity in BALB/c mouse assessed as effect on lung at 50 mg/kg, iv administered as single dose measured upto 14 days by H and E staining based analysis; type: organism-based; conditions: in vivo, 336 h, time < 14 day
[34] = Antiproliferative activity against rat H9c2 cells assessed as inhibition of cell growth measured after 72 hrs by CCK-8 method; type: toxicity, cell-based
DLD-1 = experiment: cells; conditions: Homo sapiens, DLD-1, 72 h
Description: Antiproliferative activity against human DLD-1 cells assessed as inhibition of cell growth measured after 72 hrs by CCK-8 method

[35] = Acute toxicity in BALB/c mouse assessed as effect on spleen at 50 mg/kg, iv administered as single dose measured upto 14 days by H and E staining based analysis; type: organism-based; conditions: in vivo, 336 h, time < 14 day
[36] = MRT (0 to 12hrs) in Sprague-Dawley rat at 10 mg/kg, po by LC-MS/MS analysis; type: ADME, organism-based; conditions: in vivo
[37] = Antiproliferative activity against HEK293 cells assessed as inhibition of cell growth measured after 72 hrs by CCK-8 method; type: toxicity, cell-based; conditions: human
[38] = Acute toxicity in BALB/c mouse assessed as survival at 50 mg/kg, iv administered as single dose measured upto 14 days; type: organism-based; conditions: in vivo, 336 h, time < 14 day
HCT-116 [39] = experiment: Induction of cell cycle arrest in human HCT-116 cells assessed as effect on number of cells at G1 phase at 0.5 to 2 uM measured after 48 hrs by PI staining based flow cytometry analysis; type: functional; conditions: dose 0.5-2 µM
HCT-116 [40] = experiment: Induction of ROS generation in human HCT-116 cells assessed as increase in intracellular ROS level measured after 48 hrs DCFH-DA staining based analysis; type: functional, cell-based
[41] = Metabolic stability in human liver microsomes assessed as half life at 1 uM measured upto 60 mins in presence of NADPH regenerating system by LC-MS/MS analysis; type: ADME, Microsome
[42] = Acute toxicity in BALB/c mouse assessed as effect on liver at 50 mg/kg, iv administered as single dose measured upto 14 days by H and E staining based analysis; type: organism-based; conditions: in vivo, 336 h, time < 14 day

In the case of `N#Cc1cccc(CN2CCC=C(C(=O)NCc3ccc(C(F)(F)F)cc3)C2)c1`, the Activity (HCT-116 [1]) is reported as “Active”, the Activity [2] is reported as “Non-Toxic” and the MRT last [3] is reported as 3.1 h. The Activity (HCT-116 [4]) was “inactive”, the Activity (HCT-116 [5]) was 250 mg and the half-life [6] was 4.8 h. The half-life [7] was 4.7 h, the Activity (HCT-116 [8]) was “Active” and the Activity (HCT-116 [9]) was “Dose-Dependent Effect”. The Activity (HCT-116 [10]) was “inactive”, the Activity (HCT-116 [11]) was “Active” and the Activity (HCT-116 [12]) was “Active”. It also gave an AUC(0-t) [13] of 777 ng·h/mL, a CLint scaled at 1 µM [14] of 305 mL/min/kg and a CLint scaled at 1 µM [15] of 206 mL/min/kg. The Activity (HCT-116 [16]) was 70%, the Activity (HCT-116 [17]) was “inactive” and the MIC (Staphylococcus aureus [18]) was greater than 128 µg/mL. For the same compound, the Tmax [19] was 5.4 h, the Activity [20] was “Non-Toxic” and the MIC (Staphylococcus aureus [21]) was greater than 128 µg/mL. For the same compound, the Activity (HCT-116 [22]) was “Dose-Dependent Effect”, the Activity (HCT-116 [23]) was “Active” and the IC50 at 72 h [24] was 64.1 µM. For the same compound, the Activity (HCT-116 [25]) was 22%, the AUC [26] was 1433.6 ng·h/mL and the Activity [27] was “Non-Toxic”. For the same compound, the Cmax [28] was 966 ng/mL, the MIC (Staphylococcus aureus [29]) was greater than 128 µg/mL and the Activity (HCT-116 [30]) was 60%. The Activity (HCT-116 [31]) was “Active”, the Activity (HCT-116 [32]) was “Active” and the Activity [33] was “Non-Toxic”. The IC50 at 72 h [34] was 60.6 µM, the IC50 (DLD-1) was 3.1 µM and the Activity [35] was “Non-Toxic”. The MRT last [36] was 6.7 h, the IC50 at 72 h [37] was 78.1 µM and the Activity [38] was “Non-Toxic”. The Activity (HCT-116 [39]) was “inactive”, the Activity (HCT-116 [40]) was “Active” and the half-life at 1 µM [41] was 6.1 min. The Activity [42] was “Non-Toxic”.
